Eleven compounds from ChEMBL document CHEMBL1136137, “Ring substituted analogues of 5-aminomethyl-10,11-dihydro-dibenzo[a,d]cycloheptene (AMDH): potential modes of binding to the 5-HT(2A) receptor” (Bioorg Med Chem Lett, 2003) can be followed below.

The target of this test is 5-hydroxytryptamine receptor 2A (Rattus norvegicus, UniProt P14842). Kind of test: Binding affinity towards 5-hydroxytryptamine 2A receptor sites by using [3H]ketanserin as radioligand.
5-hydroxytryptamine receptor 2A, sequence (P14842 whole entry): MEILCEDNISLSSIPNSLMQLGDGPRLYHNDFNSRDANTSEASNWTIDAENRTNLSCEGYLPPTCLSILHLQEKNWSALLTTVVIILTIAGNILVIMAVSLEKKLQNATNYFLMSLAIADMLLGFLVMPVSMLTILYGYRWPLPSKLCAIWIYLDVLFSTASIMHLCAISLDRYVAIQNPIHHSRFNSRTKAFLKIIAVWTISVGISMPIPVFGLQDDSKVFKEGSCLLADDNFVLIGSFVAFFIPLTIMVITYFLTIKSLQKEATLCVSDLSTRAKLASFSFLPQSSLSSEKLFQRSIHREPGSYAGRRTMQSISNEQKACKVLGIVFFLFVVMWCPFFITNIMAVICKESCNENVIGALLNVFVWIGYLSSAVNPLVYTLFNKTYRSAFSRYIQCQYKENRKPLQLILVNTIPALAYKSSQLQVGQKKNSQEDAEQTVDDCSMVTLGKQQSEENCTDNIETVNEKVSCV
Compound `CCCCCCc1cc(OC)c(CC(C)N)cc1OC` (stereo unspecified) gave a Ki of 2.5 nM. As to `COc1ccc2c(c1)CCc1ccccc1C2CN` (stereo unspecified), the affinity corresponds to a Ki of 800 nM. The compound `CCCCCCc1ccc2c(c1)CCc1ccccc1C2CN` (stereo unspecified) registered a Ki of 630 nM. On to `COc1ccc2c(c1)Cc1ccccc1C2CN` (stereo unspecified), for which the affinity, expressed as Ki, was 7.5 nM. Compound `NCC1c2ccccc2Cc2cc(CCCc3ccccc3)ccc21` (stereo unspecified) returned a Ki of 3.2 nM. The compound `COc1cc(CC(C)N)c(OC)cc1CCCc1ccccc1` (stereo unspecified) showed a Ki of 10 nM.

As for `COc1cc(OC)c(OC)cc1CC(C)N` (stereo unspecified), affinity was put at a Ki of 1200 nM. The compound `NCC1c2ccccc2CCc2cc(CCCc3ccccc3)ccc21` (stereo unspecified) showed a Ki of 81 nM. Compound `NCC1c2ccccc2Cc2cc(Br)ccc21` (stereo unspecified) displayed a Ki of 1.3 nM. Regarding `CCCCCCc1ccc2c(c1)Cc1ccccc1C2CN` (stereo unspecified), affinity was put at a Ki of 7 nM. `NCC1c2ccccc2CCc2cc(Br)ccc21` (stereo unspecified) gave a Ki of 37 nM.

As usually defined, the Ki is the dissociation constant of the complex between target and ligand, obtained from inhibition or displacement. A higher Ki goes with weaker binding.
